Results from PubChem BioAssay (NCI).
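Compound exposure: 48 hours, 5 concentrations, 96-well plates. GI50 is the concentration that inhibits growth by half. Definition used: TGI = concentration required for complete inhibition of growth.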

Key:
Experiment in all cases: NCI-60 cell line screen, 48 h
[1] = system: ACHN renal
[2] = system: CAKI-1 renal
[3] = system: OVCAR-8 ovarian
[4] = system: MDA-MB-435
[5] = system: NCI-H522 lung
[6] = system: CCRF-CEM leukemia
[7] = system: HCC-2998 colon
[8] = system: A498 renal
[9] = system: PC-3 prostate
[10] = system: SNB-75 CNS
[11] = system: MOLT-4 leukemia
[12] = system: SK-MEL-28 melanoma
[13] = system: RPMI-8226 leukemia
[14] = system: SK-MEL-5 melanoma
[15] = system: UO-31 renal
[16] = system: SK-OV-3 ovarian
[17] = system: MALME-3M melanoma
[18] = system: M14 melanoma
[19] = system: SF-539 CNS
[20] = system: NCI-H23 lung
[21] = system: SN12C renal
[22] = system: UACC-257 melanoma
[23] = system: NCI/ADR-RES ovarian
[24] = system: HOP-92 NSCLC
[25] = system: OVCAR-5 ovarian
[26] = system: TK-10 renal
[27] = system: SF-295 CNS
[28] = system: NCI-H460 lung
[29] = system: COLO 205 colon
[30] = system: HOP-62 NSCLC
[31] = system: T-47D breast
[32] = system: U251 CNS
[33] = system: UACC-62 melanoma
[34] = system: BT-549 breast
[35] = system: IGROV1 ovarian
[36] = system: HCT-15 colon
[37] = system: HL-60(TB) leukemia
[38] = system: SK-MEL-2 melanoma
[39] = system: MDA-MB-231 breast
[40] = system: HCT-116 colon
[41] = system: 786-0 renal
[42] = system: MCF7 breast
[43] = system: LOX IMVI melanoma
[44] = system: KM12 colon
[45] = system: HS 578T breast
[46] = system: A549 NSCLC
[47] = system: K-562 leukemia
[48] = system: SW-620 colon
[49] = system: OVCAR-4 ovarian
[50] = system: NCI-H226 lung
[51] = system: RXF 393 renal
[52] = system: SF-268 CNS
[53] = system: HT29 colon
[54] = system: DU-145 prostate
[55] = system: SNB-19 CNS
[56] = system: SR leukemia
[57] = system: OVCAR-3 ovarian

In the case of `CCn1c(=O)c(Oc2ccc(F)cc2F)cc2cnc(NC3CCOCC3)nc21`, the GI50 [1] is reported as > 25 µM, the TGI [1] is reported as > 25 µM and the GI50 [2] is reported as > 25 µM. For the same compound, the TGI [2] was > 25 µM, the GI50 [3] was > 25 µM and the TGI [3] was > 25 µM. The GI50 [4] was > 25 µM, the TGI [4] was > 25 µM and the GI50 [5] was > 25 µM. For the same compound, the TGI [5] was > 25 µM, the GI50 [6] was > 25 µM and the TGI [6] was > 25 µM. The GI50 [7] was > 25 µM, the TGI [7] was > 25 µM and the GI50 [8] was 6.94 µM. For the same compound, the TGI [8] was > 25 µM, the GI50 [9] was > 25 µM and the TGI [9] was > 25 µM. For the same compound, the GI50 [10] was > 25 µM, the TGI [10] was > 25 µM and the GI50 [11] was > 25 µM. The TGI [11] was > 25 µM, the GI50 [12] was > 25 µM and the TGI [12] was > 25 µM. For the same compound, the GI50 [13] was > 25 µM, the TGI [13] was > 25 µM and the GI50 [14] was > 25 µM. The TGI [14] was > 25 µM, the GI50 [15] was 5.47 µM and the TGI [15] was > 15.2 µM. The GI50 [16] was > 25 µM, the TGI [16] was > 25 µM and the GI50 [17] was > 25 µM. The TGI [17] was > 25 µM, the GI50 [18] was > 25 µM and the TGI [18] was > 25 µM. The GI50 [19] was > 25 µM, the TGI [19] was > 25 µM and the GI50 [20] was > 25 µM. The TGI [20] was > 25 µM, the GI50 [21] was > 25 µM and the TGI [21] was > 25 µM. The GI50 [22] was > 25 µM, the TGI [22] was > 25 µM and the GI50 [23] was > 25 µM. The TGI [23] was > 25 µM, the GI50 [24] was 3.19 µM and the TGI [24] was > 25 µM. The GI50 [25] was > 25 µM, the TGI [25] was > 25 µM and the GI50 [26] was 19.7 µM. The TGI [26] was > 25 µM, the GI50 [27] was > 25 µM and the TGI [27] was > 25 µM. The GI50 [28] was > 25 µM, the TGI [28] was > 25 µM and the GI50 [29] was > 25 µM. The TGI [29] was > 25 µM, the GI50 [30] was > 25 µM and the TGI [30] was > 25 µM. The GI50 [31] was > 25 µM, the TGI [31] was > 25 µM and the GI50 [32] was > 25 µM. The TGI [32] was > 25 µM, the GI50 [33] was > 25 µM and the TGI [33] was > 25 µM. For the same compound, the GI50 [34] was > 25 µM, the TGI [34] was > 25 µM and the GI50 [35] was > 25 µM. For the same compound, the TGI [35] was > 25 µM, the GI50 [36] was > 25 µM and the TGI [36] was > 25 µM. The GI50 [37] was > 14.1 µM, the TGI [37] was > 25 µM and the GI50 [38] was > 25 µM. For the same compound, the TGI [38] was > 25 µM, the GI50 [39] was > 25 µM and the TGI [39] was > 25 µM. For the same compound, the GI50 [40] was > 25 µM, the TGI [40] was > 25 µM and the GI50 [41] was > 25 µM. For the same compound, the TGI [41] was > 25 µM, the GI50 [42] was > 25 µM and the TGI [42] was > 25 µM. For the same compound, the GI50 [43] was > 25 µM, the TGI [43] was > 25 µM and the GI50 [44] was > 25 µM. The TGI [44] was > 25 µM, the GI50 [45] was > 16.4 µM and the TGI [45] was > 25 µM. The GI50 [46] was > 25 µM, the TGI [46] was > 25 µM and the GI50 [47] was > 25 µM. The TGI [47] was > 25 µM, the GI50 [48] was > 25 µM and the TGI [48] was > 25 µM. The GI50 [49] was > 25 µM, the TGI [49] was > 25 µM and the GI50 [50] was > 25 µM. For the same compound, the TGI [50] was > 25 µM, the GI50 [51] was > 18.7 µM and the TGI [51] was > 25 µM. The GI50 [52] was > 25 µM, the TGI [52] was > 25 µM and the GI50 [53] was > 25 µM. The TGI [53] was > 25 µM, the GI50 [54] was > 25 µM and the TGI [54] was > 25 µM. The GI50 [55] was > 25 µM, the TGI [55] was > 25 µM and the GI50 [56] was > 25 µM. For the same compound, the TGI [56] was > 25 µM, the GI50 [57] was > 25 µM and the TGI [57] was > 25 µM.
